Reference: patent US20190211317A1, “PEPTIDES AND NANOPARTICLES FOR INTRACELLULAR DELIVERY OF GENOME-EDITING MOLECULES” (Aadigen, LLC, priority 2016, published 2019)
Where “and” joins values, the source holds several entries; their conditions need not be identical. Equal values may be shown once. Read-outs that look alike come from different tables or passages of the source.

Legend:
[1] = tested on: endogenous EMX1 gene in U2OS, HEPG2, K562 cells and primary human fibroblasts; assay: EMX1 editing from CPP delivery of CAS9 mRNA/gRNA (T7E1); type: cell-based
Description: CPP/CAS9 mRNA/gRNA complexes were formed by mixing the CAS9 mRNA (0.5 μg) and gRNA (5 μg) with CPP at a 20:1 molar ratio of CPP:cargo and incubating for 30 min at 37° C. prior to cell transfection. Suspension and adherent cells were transfected according to the protocols described in Example 13a. RNAiMAX-mediated delivery (Invitrogen Thermo Fisher France) was used as a control. EMX1 gene editing was analyzed at day 3 and day 6 by T7E1 assay and quantified using a Fragment Analyzer System.

Swiss mice [2] = assay: In vivo delivery of CAS9 mRNA by three CPPs: CAS9 expression in tissues (ELISA); set-up: species or system mouse
Description: Free CAS9 mRNA in physiological buffer was injected as a control.
At day 3, day 6, and day 10 following injection, animals were sacrificed and tissues including lung, liver, brain, kidney, heart, spleen, blood, pancreas, muscle, bone marrow, and intestine were collected. Tissues were homogenized and CAS9 protein levels in protein extracts were analyzed by ELISA using an antibody against CRISPR/Cas9 (SBI clone 7A9).

[3] = tested on: hPD1 gene in human T cells; assay: hPD1 gene editing in primary human T cells (T7E1 assay); type: cell-based
Description: T cells were isolated from PBMCs (2 different donors) using anti-CD3/anti-CD28 antibodies bound to paramagnetic beads (Dynabeads ClinExVivo CD3/CD28, Invitrogen) at a ratio of 3:1 (beads:cells). The cells and beads were co-incubated for 2 hours at room temperature and CD3′ cell enrichment was performed using Dynal ClinExVIVO MPC magnet (Thermo Fisher). The anti-CD3/anti-CD28 paramagnetic beads were removed, washed and concentrated. Cells in the CD3′ fraction were resuspended in activation media at a concentration of 1×10^6 cells/ml with AIM-V medium (Thermo Fishers) supplemented with 10% fetal calf serum, 300 IU/ml IL2 and 50 ng/ml OKT3 (MuromonAB-CD3) for two days.
Cells were transfected by electroporation with CD-19 plasmid or gRNA/CAS9 (5 μg/10 μg) using a Nucleofector 2b (Lonza, Germany) with the Amaxa Human T cells Nucleofector Kit, VPA-1002 (Lonza, Germany). 5×10^6 cells were washed twice with DPBS by centrifuging at 800 rpm for 5 minutes and resuspended in 100 ^l transfection buffer, and then transferred into the electroporation cuvette. An optimized program selected for both high transfection and high efficiency on T cells was used. After electroporation, cells were resuspended in 500 ^l pre-warmed AIM-V medium containing 10% FBS and incubated at 37° C. in 5% CO2. The transfection efficiency was evaluated after 48 hr by flow cytometry or T7E1 assay.
As control, CAS9 loaded with gRNA targeting GFP was used.
Cells were returned to the incubator for 72 hours. CAS9-induced double-strand break followed by repair through non-homologous end joining (NHEJ) was analyzed by either the T7E1 assay or using the Genome Cleavage Detection kit (GCD Thermo Fisher) and quantified using Fragment Analyzer System. The indel frequency in the target gene was quantified using the T7E1 assay. The cultures were expanded and analyzed for viability and PD1 levels every 10 days. T cell expansion medium contained AIM V medium, supplemented with 5% heat-inactivated human AB Serum, 1% Gluta-Max, and 300 IU/mL IL-2.

[4] = tested on: EGFP-U2OS, EGFP-HEK, EGFP-JURKAT cells; assay: Toxicity of CPP/CAS9/gRNA complexes (MTT assay); type: cell-based; conditions: three cell lines; concentrations up to 100 nM; 24 h
Description: The robust EGFP disruption observed in the three cell lines was found not to be the result of cellular toxicity. […] A total of 30,000 cells seeded in 24-well plates the day prior to transfection were incubated with increasing concentrations of CPP/CAS9/gRNA (complexed at a 10:1 or 20:1 molar ratio of CPP to preloaded CAS9/gRNA complex) ranging from 1 to 200 nM for 30 min prior to addition of medium to reach a final 10% concentration of FCS. Cytotoxic response was measured 24 hours later by colorimetric MTT assay (Sigma, Germany). For MTT assay, cell culture medium was removed and replaced with PBS containing 2.5 mg/ml MTT for 4 hours. Results correspond to the average of 3 separate experiments. […] Viability was reduced by less than 10% at 200 nM. In contrast, at […] for Lipofectamine 2000 or RNAiMAX, between 60-70% and 20-25% cell death was observed, depending on cell line. Moreover, both lipid methods appeared to be highly toxic on JURKAT cells, inducing 75% (lipofectamine 2000) or 45% (RNAiMAX) cell death.

[5] = tested on: U2OS, HEPG2, K562 cells and primary human fibroblasts; assay: CAS9 protein expression after CPP delivery of CAS9 mRNA (ELISA); type: cell-based; conditions: day 3
Description: CPP/CAS9 mRNA complexes were formed by mixing the CAS9 mRNA (0.5 μg) with CPP at a 20:1 molar ratio of CPP:CAS9 mRNA and incubating for 30 min at 37° C. prior to cell transfection. Cells were transfected according to optimized protocols for either adherent or suspension cell lines.
Human primary fibroblasts were freshly obtained and grown in flasks pre-coated with a gelatin-based coating solution and incubated in Culture Complete Growth Medium for 3 days before expansion and treatment. U2OS cells were cultured in Dulbecco's Modified Eagle's Medium (DMEM), supplemented with 2 mM glutamine, 1% antibiotics (streptomycin 10,000 μg/mL, penicillin, 10,000 IU/mL) and 10% (w/v) foetal calf serum (FCS), at 37° C. in a humidified atmosphere containing 5% CO2. 35 mm dishes seeded with 150,000 cells the day prior to transfection were grown to 50-60% confluence and set up to be at about 70% confluences at the time of transfection. Before transfection, cells were washed with DMEM (2×) followed by PBS (1×). Cells were then overlaid with 0.2 ml of complex solution (16 μl CPP/Cargo complex in water+184 μl OPTiMEM without antibiotics), mixed gently, and incubated for 10 min at 37° C. 0.8 mL of fresh OPTiMEM or DMEM was then added and cells were incubated for 20 min at 37° C. 2 mL of complete OPTiMEM (high glucose) or DMEM containing 11.4% FCS was then added in order to reach a final FCS concentration of 10%, without removing the overlay of CPP/Cargo complexes. Cells were returned to the incubator (37° C., 5% CO2) and assayed at 72 hours post transfection.
K562 and HEpG2 cells were set up to be at about 70% confluence at the time of transfection. The cells were maintained in high glucose DMEM media with 10% serum. Before transfection, cells were harvested by centrifugation, then washed with DMEM (2×) followed by PBS (1×). Cells were then resuspended in 0.2 ml of complex solution (16 μl CPP/Cargo complex in water+184 μl OPTiMEM without antibiotics), mixed gently, and incubated for 10 min at 37° C. 0.8 mL of fresh OPTiMEM was then added and cells were incubated for 20 min at 37° C. 2 mL of complete OPTiMEM (high glucose) containing 11.4% FCS was then added in order to reach a final FCS concentration of 10%, without removing the overlay of CPP/Cargo complexes. Cells were returned to the incubator (37° C., 5% CO2) and assayed at 72 hours post transfection.
RNAiMAX lipid-based delivery (Invitrogen Thermo Fisher France) was used as a control and transfections were performed following the manufacturer's instructions. CAS9 expression level was analyzed at multiple time points over a period of 10 days as determined by ELISA on protein extracts using antibodies against CRISPR/Cas9 obtained from Diagenode (Diagenode cat. No. C15200223) and ABCAM (clone 7A9-ab191468).

primary human T cells = assay: CAS9 protein expression in primary human T cells after CAS9 mRNA or plasmid delivery (ELISA); type: cell-based; conditions: day 3
Description: T cells were isolated from PBMCs using anti-CD3/anti-CD28 antibodies bound to paramagnetic beads (Dynabeads ClinExVivo CD3/CD28, Invitrogen) at a ratio of 3:1 (beads:cells). The cells and beads were co-incubated for 2 hours at room temperature and CD3^+ cell enrichment was performed using Dynal ClinExVIVO MPC magnet (Thermo Fisher). The anti-CD3/anti-CD28 paramagnetic beads were removed, washed and concentrated. Cells in the CD3^+ fraction were resuspended in activation media at a concentration of 1×10^6 cells/ml with AIM-V medium (Thermo Fishers) supplemented with 10% fetal calf serum, 300 IU/ml IL2 and 50 ng/ml OKT3 (MuromonAB-CD3) for two days.
CPP/CAS9 complexes were formed by mixing the CAS9 mRNA (0.5 μg) with CPP at a 20:1 molar ratio of CPP:CAS9 mRNA and incubating for 30 min at 37° C. prior to cell transfection. CPP/CAS9-expressing plasmid complexes were formed by mixing the CAS9-expressing plasmid (Addgene MLM3639-Plasmid #42252) (0.5 μg) with CPP at a 20:1 molar ratio of CPP:plasmid and incubating for 30 min at 37° C. prior to cell transfection.
Cells were transfected according to the protocol for suspension cells described in Example 13a. RNAiMAX and lipofectamine 2000 lipid-based delivery methods (Invitrogen Thermo Fisher France) were used as controls, and transfections were performed following the manufacturer's instructions. CAS9 protein expression level was analyzed at multiple time points over a period of 10 days as determine by ELISA on protein extracts using antibodies against CRISPR/Cas9 obtained from Diagenode (Diagenode cat. No. C15200223) and ABCAM (clone 7A9-ab191468).

[6] = CPP/CAS9 and CPP/CAS9:gRNA particle size, polydispersity, zeta potential (Zetasizer 4); type: physicochemical
Description: The CPP/CAS9 and CPP/CAS9/sgRNA particles were further characterized; the mean size, polydispersity and zeta potential were measured with Zetasizer 4 apparatus (Malvern Ltd). […] The mean size and the polydispersity of the CCP/CAS9 and CCP/CAS9:gRNA complexes were determined at 25° C. for 3 min per measurement and zeta potential was measured with Zetasizer 4 apparatus (Malvern Ltd).

[7] = tested on: endogenous EMX1 gene in U2OS, HEPG2 cells and primary human fibroblasts; assay: EMX1 editing from CPP delivery of CAS9-expressing plasmid and gRNA (T7E1); type: cell-based; conditions: the three cell types
Description: EMX1-targeting gRNAs were prepared as described above. CPP/plasmid/gRNA complexes were prepared by mixing 0.5 μg of a CAS9-expressing plasmid (Addgene MLM3639-Plasmid #42252) and 5 μg gRNA with CPP at a 20:1 molar ratio of CPP to nucleic acid (plasmid+gRNA) and incubating for 30 min at 37° C. prior to cell transfection. Suspension and adherent cells were transfected according to the protocols described in Example 13a. Lipofectamine 2000- and RNAiMAX-mediated delivery methods (Invitrogen Thermo Fisher France) were used as controls. EMX1 gene editing was analyzed at day 3 and day 6 by T7E1 assay and quantified using a Fragment Analyzer System.

[8] = Particle size, polydispersity and zeta potential with different cargoes (Zetasizer NANO ZS P); type: physicochemical; conditions: 20:1
Description: The CPP/CAS9-protein, CPP/CAS9-protein/sgRNA, CPP/CAS9-mRNA, CPP/CAS-mRNA/sgRNA particles were characterized; the mean size, polydispersity, and zeta potential were measured with a Zetasizer NANO ZS P apparatus (Malvern Ltd).
The mean size and the polydispersity of the CCP/cargo complexes were determined at 25° C. for 5 min per measurement and zeta potential was measured with a Zetasizer NANO ZS P apparatus (Malvern Ltd).

[9] = tested on: HPRT gene in mouse muscle myoblast cells (C2C12); assay: HPRT gene editing in C2C12 myoblasts (T7E1 assay); type: cell-based
Description: […] Delivery by RNAiMAX was included as a positive control.
CAS9-induced NHEJ was analyzed 72 hours after transfection by PCR (FIG. 26) and T7E1 assay (FIG. 27). The deletion (indel) frequencies in the HPRT gene were quantified using a T7E1 assay by quantifying the amount of uncut vs cut DNA using a Fragment Analyzer System. Data for on-target mutations induced by RGEN/gRNA are reported as an average of 3 separate experiments
The cell line was maintained in 5% CO2 at 37° C. and cell viability was assessed by the Trypan Blue exclusion test. To induce myogenic differentiation, at about 80% cell confluence the medium containing 10% fetal calf serum was substituted with medium containing 1% fetal calf serum. The cells were transfected at the undifferentiated stage or at day 7 after differentiation.

Swiss mice [10] = conditions: other tissues examined
Description: At 72 hours following injection, animals were sacrificed and tissues including lung, liver, brain, kidney, heart, spleen, blood, and pancreas were collected. Tissues were homogenized and CAS9 expression was analyzed by western blot on protein extract using antibody against CRISPR/Cas9 (Diagenode cat. No. C15200223) or by ELISA using Cas9 monoclonal antibody (SBI clone 7A9).

[11] = tested on: Luciferase reporter gene in the liver; conditions: free ADGN-100a peptide
Description: At 72 hours post injection, animals were sacrificed and the following tissues were collected: liver, lung, kidney, spleen, and blood. Luciferase was quantified by fluorescence in the liver. Tissues were homogenized and CAS9 expression was analyzed by ELISA using Cas9 monoclonal antibody (SBI clone 7A9).

[12] = tested on: endogenous EMX1 and exogenous EGFP reporter genes in GFP-U2OS, EGFP-JURKAT cells; assay: Delivery of multiple RGEN/gRNA complexes: EMX1 and EGFP editing; type: cell-based, human
Description: RNAiMAX delivery was used as positive control. Cells were treated as described previously and CAS9-induced NHEJ analyzed 72 hr after transfection. […] The deletion (indel) frequency in the EMX1 gene was quantified using the T7E1 assay and loss of EGFP expression was monitored by flow cytometry. Data for on-target mutations induced by RGEN/gRNA are reported as an average of 3 separate experiments.

U2OS cells = conditions: CAS9 mRNA 0.2 μg and 0.5 μg; 20:1; 72 h
Description: U2OS cells were cultured in Dulbecco's Modified Eagle's Medium (DMEM), supplemented with 2 mM glutamine, 1% antibiotics (streptomycin 10,000 μg/mL, penicillin, 10,000 IU/mL) and 10% (w/v) foetal calf serum (FCS), at 37° C. in a humidified atmosphere containing 5% CO2. […] After 20 min incubation at 37° C., 1 mL of fresh DMEM containing 16% FCS was added in order to reach a final FCS concentration of 10%, without removing the overlay of complexes. Cells were returned to the incubator for 72 hours. CAS9 expression level was quantified by western blot on protein extract using antibody against CRISPR/Cas9 (Diagenode cat. No. C15200223).

CC(C)C[C@H](NC(=O)[C@H](CCCNC(=N)N)NC(=O)[C@H](Cc1c[nH]c2ccccc12)NC(=O)[C@H](CCCNC(=N)N)NC(=O)[C@H](Cc1c[nH]c2ccccc12)NC(=O)CNC(=O)[C@H](C)NC(=O)[C@H](CO)NC(=O)[C@H](CCCNC(=N)N)NC(=O)[C@H](Cc1c[nH]c2ccccc12)NC(=O)[C@H](CCCCN)NC(=O)CCN)C(=O)N[C@@H](Cc1c[nH]c2ccccc12)C(=O)N[C@@H](CCCNC(=N)N)C(=O)N[C@H](C(=O)N[C@@H](CCCNC(=N)N)C(=O)N[C@@H](CO)C(=O)N[C@@H](Cc1c[nH]c2ccccc12)C(=O)N[C@@H](CO)C(=O)N[C@@H](CCCNC(=N)N)C(=O)O)C(C)C [ADGN-100a]
mean indel frequencies [1]: about 60%
CAS9 expression (Swiss mice [2]; day 10, liver): CAS9 expression was observed
ELISA signal for CAS9 protein expression (Swiss mice [2]; liver, day 3 and day 6, CAS9 mRNA 5 μg i.v., 20:1): greater than 20 times that of background
CAS9 protein expression (Swiss mice [2]; other tissues examined): Little to no increase
Mean indel Frequency ± s.e.m ([3]; Donor 1, CAS9/sgRNA 2.5 μg/5 μg): 48 ± 6%
Mean indel Frequency ± s.e.m ([3]; Donor 1, CAS9/sgRNA 5 μg/10 μg): 56 ± 4%
Mean indel Frequency ± s.e.m ([3]; Donor 2, CAS9/sgRNA 2.5 μg/5 μg): 52 ± 5%
Mean indel Frequency ± s.e.m ([3]; Donor 2, CAS9/sgRNA 5 μg/10 μg): 61 ± 8%
mean indel frequency of hPD1 gene ([3]; T cells from the two donors, 5 μg/10 μg CAS9/gRNA): 58%
toxicity [4]: no toxicity
ELISA signal for CAS9 protein expression ([5]; U2OS, K562, HepG2, CAS9 mRNA 0.5 μg): about 25 times the background
ELISA signal for CAS9 protein expression ([5]; primary human fibroblasts): about 20 times the background
ELISA signal for CAS9 protein expression (primary human T cells; CAS9-expressing plasmid 0.5 μg): about 4 times the background
ELISA signal for CAS9 protein expression (primary human T cells; CAS9 mRNA 0.5 μg): about 15 times the background
PI ([6]; Cas9:gRNA, molar ratio 10/1): 0.27 ± 0.1
Size ([6]; Cas9:gRNA, molar ratio 10/1): 91 ± 5 nm
zeta ([6]; Cas9:gRNA, molar ratio 10/1): 5.3±1.0 MV and 5.3 ± 0.7 MV
PI ([6]; Cas9:gRNA, molar ratio 20/1): 0.28 ± 0.1
Size ([6]; Cas9:gRNA, molar ratio 20/1): 87 ± 6 nm
zeta ([6]; Cas9:gRNA, molar ratio 20/1): 4.8±0.3 MV
Pt ([6]; Cas9, molar ratio 10/1): 0.25 ± 0.1
zeta ([6]; Cas9, molar ratio 10/1): 6.0±0.8 mV
Size ([6]; Cas9, molar ratio 10/1, 0.9% NaCl): 82 ± 5 nm
Pt ([6]; Cas9, molar ratio 20/1): 0.21 ± 0.1
Size ([6]; Cas9, molar ratio 20/1): 78 ± 7 nm
zeta ([6]; Cas9, molar ratio 20/1): 7.2±1 mV
formation of stable nanoparticles ([6]; with CAS9 and CAS9:gRNA complex, molar ratio 10:1 or 20:1): able to form stable nanoparticles
Mean diameter ([6]; with CAS9 and CAS9:gRNA, molar ratio 10:1 or 20:1): ~80 nm
mean indel frequencies [7]: 45-50%
formation of stable nanoparticles ([8]; with CAS9-mRNA and CAS9-mRNA/gRNA complex): able to form stable nanoparticles
Mean diameter ([8]; with CAS9-mRNA and CAS9-mRNA/gRNA): about 75 nm
formation of stable nanoparticles ([8]; with CAS9-protein and CAS9-protein/gRNA complex): able to form stable nanoparticles
Mean diameter ([8]; with CAS9-protein and CAS9-protein/gRNA): about 100 nm
mean indel frequency ([9]; differentiated C2C12): 47%
mean indel frequency ([9]; undifferentiated C2C12, 5 μg/10 μg CAS9/gRNA, 20:1): 79%
CAS9 protein expression (Swiss mice [10]): No significant increase
change in luciferase expression [11]: no change in luciferase expression
Mean indel Frequency ± S.E.M ([12]; JURKAT, EGFP): 78 ± 4%
Mean indel Frequency ± S.E.M ([12]; JURKAT, EMX1): 76 ± 7%
Mean indel Frequency ± S.E.M ([12]; U2OS, EGFP, 25 nM each complex): 77 ± 6%
Mean indel Frequency ± S.E.M ([12]; U2OS, EMX1): 72 ± 8%
CAS9 protein expression (U2OS cells): dose-dependent expression of CAS9 protein
